Here are results for 20 compounds from PubChem BioAssay (NCI).

Test systems include LXFL 529 NSCLC; SNB-78 CNS; M19-MEL melanoma; XF 498 CNS; RXF-631 renal; DMS 114 small cell lung; HOP-18 NSCLC; T-47D breast; P388 leukemia; MDA-N; P388/ADR leukemia.
Common to all, as to assay: NCI tumour cell line growth inhibition, 48 h

Molecules are shown by their SMILES. “And” between values parts separate entries of the source, which are not always exact repeats. Equal values may be shown once.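 In this assay, cells in 96-well plates receive the compound at five concentrations for 48 hours. Endpoints are linearly interpolated between the surrounding concentrations. GI50 marks 50% less growth. TGI: concentration producing complete growth inhibition.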

Consider `OCC(O)C(OC1OC(CO)C(O)C(O)C1O)c1nn(-c2ccccc2)c2nc3cc(Cl)c(Cl)cc3cc12` (stereo not given), for which the TGI in the test on LXFL 529 NSCLC, with SNB-78 CNS, in the test on M19-MEL melanoma, in the test on XF 498 CNS and in the test on RXF-631 renal was above 100 µM in each case.

With `NNC(=O)CCC(=O)Nc1cc(Cl)c(Cl)cc1Cl`, the TGI in the test with DMS 114 small cell lung, with LXFL 529 NSCLC, in the test with SNB-78 CNS, with M19-MEL melanoma, with XF 498 CNS and with RXF-631 renal was above 100 µM each time.

Take `COc1ccc(C2=NN(C(=O)COc3ccc(Cl)cc3)C(O)(c3ccc(Cl)cc3)C2)cc1` (stereo not given): the TGI with LXFL 529 NSCLC, in the test with SNB-78 CNS, with XF 498 CNS and in the test with RXF-631 renal was above 100 µM each time.

`COC(=O)C1C2C=CC(C2)C1(C(=O)OC)S(=O)CC12CCC(CC1O)C2(C)C` (stereo not given): the TGI in the test with DMS 114 small cell lung, with LXFL 529 NSCLC, in the test with SNB-78 CNS, in the test with HOP-18 NSCLC, in the test on M19-MEL melanoma and with XF 498 CNS was above 100 µM each time. Also, in the test with RXF-631 renal, the TGI was above 100 µM.

Regarding `[C-]#[O+].[C-]#[O+].[C-]#[O+].[C-]#[O+].[Ir].[Ir].[O-]c1ccc2ccccc2c1C=Nc1ccc(N=Cc2c([O-])ccc3ccccc23)cc1`, the GI50 in the test on DMS 114 small cell lung, with LXFL 529 NSCLC, with SNB-78 CNS, in the test with HOP-18 NSCLC, with M19-MEL melanoma and with XF 498 CNS was above 100 µM in each case. Moreover, the GI50 with RXF-631 renal was above 100 µM. For the same compound, the TGI in the test on DMS 114 small cell lung, with LXFL 529 NSCLC, in the test on SNB-78 CNS, with HOP-18 NSCLC, with M19-MEL melanoma and in the test with XF 498 CNS was above 100 µM throughout. Moreover, in the test with RXF-631 renal, the TGI is above 100 µM.

As for `C=C(C)C(=O)OC1CC2=CC(CC3(C)OC3C3OC(=O)C(=C)C13)OC2=O` (stereo not given), the TGI with DMS 114 small cell lung turned out to be 30.3 µM; with LXFL 529 NSCLC, 5.94 µM; with SNB-78 CNS, 33.3 µM; in the test on HOP-18 NSCLC, 34.1 µM; in the test on T-47D breast, 22.6 µM; with M19-MEL melanoma it was 19 µM. Besides, the TGI in the test with RXF-631 renal is 35.8 µM.

For `COC(C(=O)C(O)C(C)O)C1Cc2cc3cc(OC4CC(OC(C)=O)C(OC5CC(O)C(OC)C(C)O5)C(C)O4)cc(O)c3c(O)c2C(=O)C1OC1CC(OC2CC(OC3CC(C)(O)C(OC(=O)C(C)C)C(C)O3)C(O)C(C)O2)C(O)C(C)O1` (stereo not given), the TGI was 0.237 µM and 0.0293 µM in the test on P388 leukemia; 0.084 µM and 0.017 µM and 0.0165 µM in the test on DMS 114 small cell lung; 0.252 µM in the test with MDA-N; 75 µM and > 100 µM in the test on P388/ADR leukemia; 0.124 µM in the test on LXFL 529 NSCLC. Further, the GI50 in the test with LXFL 529 NSCLC was 0.0174 µM; with XF 498 CNS, 0.00637 µM and 0.00134 µM.

Regarding `COc1cc(Cn2c(=S)ss/c2=N\C(=S)N(C)C)cc(OC)c1OC`, the TGI was 12.8 µM in the test with DMS 114 small cell lung; 3.01 µM in the test on MDA-N; above 100 µM in the test on LXFL 529 NSCLC; above 100 µM in the test on SNB-78 CNS; above 100 µM in the test with HOP-18 NSCLC; above 100 µM in the test with T-47D breast. For the same compound, the TGI was above 66.2 µM in the test with M19-MEL melanoma and above 100 µM in the test on RXF-631 renal.

For the compound `Nc1c(Br)c(=O)[nH]c(=O)n1COCCO`, the TGI with DMS 114 small cell lung, in the test with LXFL 529 NSCLC, in the test on SNB-78 CNS, with HOP-18 NSCLC, in the test with M19-MEL melanoma and in the test on XF 498 CNS was above 100 µM throughout. The compound also yielded a TGI with RXF-631 renal above 100 µM.

Turning to `O=C(/C=C/c1ccc(Cl)c(Cl)c1)c1ccc(F)cc1`, the TGI is 30 µM in the test on DMS 114 small cell lung; 27.7 µM in the test with LXFL 529 NSCLC; 41.1 µM in the test with SNB-78 CNS; 50.2 µM in the test with HOP-18 NSCLC; 32.5 µM in the test on M19-MEL melanoma; above 100 µM in the test with RXF-631 renal.

Regarding `CS(=O)(=O)OCCn1cnc2nc(NC(=O)c3ccccc3)[nH]c(=O)c21`, the TGI in the test on DMS 114 small cell lung, with LXFL 529 NSCLC, with SNB-78 CNS, in the test with HOP-18 NSCLC, in the test with M19-MEL melanoma and with RXF-631 renal was above 100 µM throughout.

On to `Fc1cccc2cc3ccc4cccc5ccc(c12)c3c45`, for which the TGI is above 100 µM with DMS 114 small cell lung; above 100 µM in the test on LXFL 529 NSCLC; 12.8 µM with HOP-18 NSCLC; above 100 µM with M19-MEL melanoma; above 100 µM in the test on XF 498 CNS; above 100 µM in the test on RXF-631 renal.

On to `NC1=C(Br)C(=O)c2ncccc2C1=O`, for which the TGI worked out at 0.313 µM in the test with DMS 114 small cell lung; 0.8 µM in the test on LXFL 529 NSCLC; 2.48 µM in the test on SNB-78 CNS; 4.1 µM in the test with T-47D breast; 0.298 µM in the test with M19-MEL melanoma; 2.16 µM with XF 498 CNS. The same compound had a TGI with RXF-631 renal of 3.73 µM. The GI50 in the test with T-47D breast is 1.69 µM.

Take `C/C([O-])=C1\Cc2ccccc2C1=O.C/C([O-])=C1\Cc2ccccc2C1=O.CC[O-].CC[O-].[Ti+4]`: the GI50 is 18.7 µM in the test with DMS 114 small cell lung; 17.1 µM in the test on MDA-N; 12.3 µM in the test on LXFL 529 NSCLC; 24 µM in the test with SNB-78 CNS; 32.5 µM with HOP-18 NSCLC; 15.5 µM with T-47D breast. For the same compound, the GI50 in the test on M19-MEL melanoma was 16.8 µM; in the test on RXF-631 renal, 6.96 µM. For the same compound, the TGI with DMS 114 small cell lung is 37.4 µM; in the test with MDA-N, 42.3 µM; in the test with LXFL 529 NSCLC, 35.5 µM; in the test with SNB-78 CNS it was above 100 µM; in the test on HOP-18 NSCLC, 80 µM; with T-47D breast it was 92.4 µM. For the same compound, the TGI with M19-MEL melanoma came out at 34.8 µM; in the test on RXF-631 renal, 29.1 µM.

`CCC(CC)n1cc(C(=O)NC(=O)NCCCCCOC(=O)CCCCCCCCCCC(=O)OCCCCCNC(=O)NC(=O)c2cn(C(CC)CC)c(=O)[nH]c2=O)c(=O)[nH]c1=O`: the TGI in the test with DMS 114 small cell lung, in the test with LXFL 529 NSCLC, in the test with SNB-78 CNS, with HOP-18 NSCLC, with M19-MEL melanoma and in the test with XF 498 CNS was above 100 µM in each case. Besides, the TGI in the test with RXF-631 renal is above 100 µM.

For `O=C1OC(CC(=O)c2ccc(Cl)cc2Cl)C(Cl)=C1Cl` (stereo not given), the TGI with DMS 114 small cell lung was above 53.1 µM; in the test on LXFL 529 NSCLC it was 32.1 µM; in the test on SNB-78 CNS, above 71.3 µM; in the test with HOP-18 NSCLC, above 100 µM; with M19-MEL melanoma, 48.8 µM; with XF 498 CNS it was 45.6 µM. This compound yielded a TGI with RXF-631 renal above 75.5 µM.

In the case of `CN(C)CCNC(=O)c1ccc(C(=O)NCCN(C)C)c2nc3ccccc3cc12`, the TGI in the test with DMS 114 small cell lung came out at 2.16 µM; in the test on LXFL 529 NSCLC it was 12.3 µM; in the test on SNB-78 CNS, 12.7 µM; in the test on HOP-18 NSCLC, 25.4 µM; in the test with M19-MEL melanoma, 2.35 µM; in the test on RXF-631 renal, 14.8 µM.

For the compound `C=CCN(N=O)C(=O)N(CCCC(NC(C)=O)C(=O)NCc1ccccc1)Cc1ccccc1` (stereo not given), the TGI with DMS 114 small cell lung, in the test with LXFL 529 NSCLC, in the test with M19-MEL melanoma, with XF 498 CNS and in the test on RXF-631 renal was above 100 µM throughout.

For `Cc1cccc(NC(=O)c2cc3cc(N=Nc4ccccc4Cl)ccc3oc2=O)c1`, the TGI with DMS 114 small cell lung was 66.8 µM; in the test on LXFL 529 NSCLC, above 100 µM; with SNB-78 CNS, above 100 µM; in the test with HOP-18 NSCLC, above 100 µM; with M19-MEL melanoma, above 100 µM; with XF 498 CNS, 64.5 µM. This compound returned a TGI in the test with RXF-631 renal above 100 µM.

As for `COc1ccc(C(Cc2cc(OC)c(OC)c(OC)c2)C(=O)O)cc1` (stereo not given), the TGI with DMS 114 small cell lung, in the test on SNB-78 CNS, in the test with HOP-18 NSCLC, in the test on M19-MEL melanoma, in the test on XF 498 CNS and in the test on RXF-631 renal was above 100 µM each time.
